Results on 3 substances are retold here after paper PMC12113342, “Identification of TRPV1-Inhibitory Peptides from Takifugu fasciatus Skin Hydrolysate and Their Skin-Soothing Mechanisms” (Marine Drugs, 2025).

Where “and” joins values, the source holds several entries; their conditions need not be identical. Equal entries are not always repeated.

The test system of data set [1] is RAW 264.7 cells. As to the kind of experiment: MTS cytotoxicity assay in RAW 264.7 cells. In kind it is cell-based. Conditions: 800 μM peptide. An excerpt: (§1) The 20 peptides with the top scores were selected and entrusted to Nanjing GenScript Biotechnology Co., Ltd., with synthetic sample purity > 95%. The process was as follows: Select the appropriate resin, pretreat it with solvent, remove the resin protective group, and expose the active site. The first protective amino acid is activated and coupled to the resin, and the amino protecting group of the amino acid is removed after washing. Repeat the “Activation–Conjugation–Deprotection” step and gradually add amino acids to lengthen the peptide chain. The peptide is cleaved from the resin with reagents such as TFA while the side-chain guard group is removed. Peptides are precipitated, washed, purified by HPLC, and identified by mass spectrometry. RAW 264.7 cells were purchased from Peking Union Medical College. The cytotoxicity of 20 candidate peptides towards RAW 264.7 cells is evaluated in an MTS assay (Promega, Madison, WI, USA), adapted from reference with modifications. RAW 264.7 cells are maintained in Dulbecco’s Modified Eagle Medium (DMEM, C11995500BT, Gibco, Grand Island, NY, USA) supplemented with 10% fetal bovine serum (F8687, Merck, Darmstadt, Germany) and 1% penicillin-streptomycin (C0222, Beyotime, Shanghai, China) at 37 °C under 5% CO2. […] NO production is measured using a NO detection kit (G2930, Promega) following the manufacturer’s protocol.

In data set [2] the test system is LPS-induced RAW 264.7 cells. As to the kind of experiment: NO production in LPS-induced RAW 264.7 cells. In kind it is cell-based. Conditions: 200 μM peptide, 2 h pretreatment, then LPS (1 μg/mL) 24 h; vs LPS-treated group.
Source text: as §1

Data set [3] deals with TRPV1-mediated Ca2+ influx in CAP-induced HaCaT cells. The data set is described as follows: Capsaicin-induced Ca2+ influx in HaCaT cells (Fluo-4AM fluorescence). The conditions noted are these: 200 μM peptide, 24 h pretreatment, CAP-stimulated HaCaT cells. It is filed as cell-based. On the procedure: HaCaT cells were purchased from the Kunming Cell Bank, Chinese Academy of Sciences. Adapted from a previous study with modifications, HaCaT cells were cultured in DMEM supplemented with 10% fetal bovine serum and 1% penicillin-streptomycin at 37 °C under 5% CO2. Cells in the logarithmic growth phase were harvested and adjusted to a density of 1 × 10^5 CFU/mL. Cell suspensions (100 μL/well) were seeded into 96-well plates and incubated for 8–12 h. After removing the supernatant, the cells were treated with T10, T14, or T18 peptide solutions (200 μM) for 2, 6, 12, or 24 h, followed by stimulation with 100 μL CAP (IC0060, Solarbio) per well. Untreated cells served as blank controls. Intracellular Ca^2+ levels were quantified using a calcium ion assay kit (S1061S; Beyotime) according to the manufacturer’s protocol. Fluorescence images were captured using an inverted fluorescence microscope and analyzed using ImageJ software (NIH, Bethesda, MD, USA) to calculate the average fluorescence intensity.

The test system of data set [4] is LPS-induced RAW 264.7 cells. As to the kind of experiment: Mouse cytokine array of LPS-induced RAW 264.7 cell supernatants. It is filed as cell-based. The conditions noted are these: T14 200 μM 6 h pretreatment, LPS 24 h; vs LPS group. On the procedure:
The expression levels of 40 cytokines and chemokines in RAW 264.7 cell culture supernatants were analyzed using the Proteome Profiler™ Mouse Cytokine Array Panel A (ARY006, R&D Systems, Minneapolis, MN, USA) following the manufacturer’s protocol. Supernatants from treated groups were collected, and 300 μL per sample was used for each array. All reagents were equilibrated to room temperature (26 ± 0.5 °C) prior to use. The array membrane was blocked with blocking buffer for 2 h at room temperature. During blocking, the detection antibody cocktail was mixed with the cell supernatant and incubated at room temperature for 1 h. The mixture was then transferred to the blocked membrane and incubated overnight at 4 °C. Post-incubation, the membrane was washed three times with wash buffer (≥10 min per wash). Horseradish peroxidase-conjugated streptavidin was added, and the membrane was incubated for 2 h at room temperature. After thorough washing, a chemiluminescent substrate was applied, and signals were captured using a chemiluminescence imaging system. The array images were analyzed using ImageJ software to quantify the integrated optical density.

For data set [5], the system named is NF-κB p65 in CAP-induced HaCaT cells. The data set is described as follows: Western blot of NF-κB p65 in CAP-induced HaCaT cells. It is filed as cell-based. Conditions: varying concentrations of T14 6 h pretreatment, CAP 24 h, total cellular protein. On the procedure: Adapted from a previous study with modifications, HaCaT cells were seeded into 6-well plates at a density of 2.0 × 10^5 CFU/mL and cultured for 8–12 h. Cells were pretreated with varying concentrations of T14 for 6 h, followed by co-stimulation with CAP for 24 h. After washing with Dulbecco’s phosphate-buffered saline, the cells were lysed on ice for 1 h using RIPA Lysis Buffer (R0010, Solarbio). Lysates were centrifuged at 12,000× g for 30 min at 4 °C, and the supernatants were collected. Protein concentrations were quantified using a BCA assay and normalized. Loading buffer (P1016, Solarbio) was added at a 1:3 ratio, and the samples were denatured at 95 °C for 5 min using a heat block before being stored at −20 °C.
Proteins (10 μL/lane) were resolved via sodium dodecyl sulfate-polyacrylamide gel electrophoresis and transferred onto polyvinylidene fluoride membranes. Membranes were blocked with 5% skim milk in Tris-buffered saline containing 0.1% Tween-20 for 2 h at room temperature. Primary antibodies against NF-κB p65 (8242T, Cell Signaling Technology, Danvers, MA, USA) and GAPDH (CL594-6004, Abclonal, Wuhan, China) were diluted according to the manufacturer’s guidelines and incubated overnight at 4 °C. […] Band intensities were quantified using ImageJ software.
(In general: A western blot detects proteins with antibodies after separation by electrophoresis.)

Data set [6] relates to ET-1 in LPS-induced HUVECs. The data set is described as follows: ET-1 ELISA in LPS-induced HUVECs. In kind it is cell-based, human. The conditions noted are these: LPS 10 μg/mL 24 h; for ET-1 inhibition rate: (LPS − peptide)/(LPS − control). The protocol:
(§2) HUVEC cell were purchased from Peking Union Medical College. HUVECS were cultured according to protocols provided by the Peking Union Medical College Cell Bank. Cells were maintained in DMEM supplemented with 10% fetal bovine serum, 1% penicillin-streptomycin, 1% GlutaMAX™ (25030149, Gibco), 1% non-essential amino acids (N1250, Solarbio), and 2% sodium pyruvate (11360070, Gibco) at 37 °C under 5% CO2. Cells in the logarithmic growth phase were seeded into 24-well plates at 2 × 10^5 CFU/mL and incubated overnight. After supernatant removal, the cells were pretreated with varying concentrations of T14 peptide (50, 100, 200, 400 μM) for 6 h, followed by co-stimulation with LPS (10 μg/mL) for 24 h. Cell culture supernatants were collected, and the expression levels of ET-1 and ICAM-1 were quantified using ELISA kits (E-EL-H0064 for ET-1, E-EL-H6114 for ICAM-1; Procell, Wuhan, China) according to the manufacturer’s instructions. The inhibition rate was calculated using the following formula:Inhibition rate (%) = (LPS − peptide)/(LPS − control) × 100%
Background: ELISA stands for enzyme-linked immunosorbent assay.

Data set [7] concerns ICAM-1 in LPS-induced HUVECs. As to the kind of experiment: ICAM-1 ELISA in LPS-induced HUVECs. It is filed as cell-based, human. Conditions: LPS 10 μg/mL 24 h; for ICAM-1 inhibition rate: (LPS − peptide)/(LPS − control); for ICAM-1 level: control 0.43, LPS 0.57 pg/mL. The protocol: as §2

As to “LFIL [T9, hit peptide from T. fasciatus skin hydrolysate, made by solid-phase synthesis]”, in data set [1], the cell viability result was “proliferative effects”.

Turning to “LDIF [T14, hit peptide from T. fasciatus skin hydrolysate, made by solid-phase synthesis]”, in data set [2], the “Inhibitory effect on NO production” value is listed as “significant inhibition”. Further, the “inhibition rate of Ca2+ fluorescence intensity” value in data set [3] is listed as 73.1%. Further, in data set [4], the TIMP-1 expression entry is reported as “markedly upregulated”; the “expression of G-CSF, GM-CSF, ICAM-1, IL-3, IL-6, IL-23 and TNF-α” value was “significantly downregulated”; the “expression of M-CSF, IL-1α, IL-7, IL-13, IL-12P70, IL-16, IL-17, IL-27, CCL3, CCL4, CXCL2 and CCL5” value is on record as “moderate downward trend”. In addition, in data set [5], the p65 expression entry was “markedly reduced p65 expression”. Also, the ET-1 inhibition rate in data set [6] (100 μM T14, 6 h pretreatment) was determined as 24.47%. Also, the ET-1 inhibition rate in data set [6] (400 μM T14, 6 h pretreatment) is 75.0%. Further, the ET-1 level in data set [6] (400 μM T14, 6 h pretreatment, control 2.05, LPS 2.7 pg/mL) turned out to be 2.2 pg/mL. Besides, in data set [7] (50 μM T14, 6 h pretreatment), the ICAM-1 inhibition rate stood at 20.65% and the ICAM-1 level is 0.54 pg/mL. For the same substance, in data set [7] (400 μM T14, 6 h pretreatment), the ICAM-1 inhibition rate is 49.0% and 48.96%; the ICAM-1 level is reported as 0.50 pg/mL.

Turning to “IFDL [T5, hit peptide from T. fasciatus skin hydrolysate, made by solid-phase synthesis]”, the cell viability entry in data set [1] is on record as “proliferative effects”.
